Results published in PMC10068418 (Journal of Antimicrobial Chemotherapy, 2023).
Where “and” joins values, the source holds several entries; their conditions need not be identical. Equal values may be shown once. Read-outs that look alike come from different tables or passages of the source.

Tests used:
[1] = Protein binding of nirmatrelvir in hamster serum by equilibrium dialysis; type: in vitro ADME, Syrian hamsters; details: male, Syrian, pH 7.4
[2] = Protein binding of nirmatrelvir in mouse serum by equilibrium dialysis; type: in vitro ADME, BALB/cAJcl mice; details: female, BALB/cAJcl, pH 7.4
[3] = BALB/cAJcl, mouse, in vivo
[4] = tested on: SARS-CoV-2 hCoV-19/Japan/TY/WK-521 strain; assay: microbe, parasite or virus in culture; type: cell-based; details: read-out: CPE EC50
SARS-CoV-2 = details: Phase 2a and Phase 2b studies; cited from earlier work
in vitro [5] = details: male, Syrian, hamster, serum
SARS-CoV-2 Omicron BA.2 = tested on: SARS-CoV-2 Omicron BA.2; set-up: species or system Syrian hamsters; details: hamster, in vivo
in vitro [6] = details: female, BALB/cAJcl, mouse, serum
[7] = tested on: SARS-CoV-2 Omicron BA.1 strain (hCoV-19/Japan/TY38-873/2021); type: cell-based; details: read-out: Viral titre EC90
[8] = tested on: SARS-CoV-2 Delta strain (hCoV-19/Japan/TY11-927/2021); type: cell-based; details: read-out: Viral titre EC90
[9] = Severe acute respiratory syndrome coronavirus 2, HEK-293T, 72 h

## CC(C)(C)[C@H](NC(=O)C(F)(F)F)C(=O)N1C[C@H]2[C@@H]([C@H]1C(=O)N[C@H](C#N)C[C@@H]1CCNC1=O)C2(C)C [Nirmatrelvir, nirmatrelvir]
[1]
  fraction unbound at 24 h, 4 µM: 0.596
[2]
  fraction unbound at 24 h, 4 µM: 0.669
[3]
  f-C24h unbound drug plasma concentration: 0.676 ± 0.609 µg/mL
  f-C72h unbound drug plasma concentration: 1.49 ± 0.43 µg/mL
  t-C24h total plasma concentration: 1.01 ± 0.91 µg/mL
  t-C48h total plasma concentration: 2.05 ± 0.61 µg/mL
  t-C72h total plasma concentration: 2.23 ± 0.65 µg/mL
[4]; [9]
  EC50: 0.041 ± 0.013 µM

## Cn1cnc(Cn2c(=O)[nH]/c(=N\c3cc4cn(C)nc4cc3Cl)n(Cc3cc(F)c(F)cc3F)c2=O)n1 [Ensitrelvir, ensitrelvir fumaric acid]
SARS-CoV-2
  Viral titres in nasal lavage fluid: significantly reduced viral titres
In vitro [5]
  fraction unbound: 0.017
SARS-CoV-2 Omicron BA.2
  Antiviral activity in the lungs (viral titres): failed to show antiviral activity
  Antiviral activity in the nasal turbinates compared with that of nirmatrelvir: greater antiviral activity
  Lowering of lung viral titres compared with 750/250 mg/kg nirmatrelvir: less effective
In vitro [6]
  fraction unbound: 0.024
[4]; [9]
  EC50: 0.027 ± 0.002 µM

## O=c1nc(NO)ccn1[C@@H]1O[C@H](CO)[C@@H](O)[C@H]1O [NHC, β-D-N^4-hydroxycytidine]
[7]
  EC90: 2.35 µM and 3.66 µM
[8]
  EC90: 3.83 µM and 6.72 µM
[4]
  EC50: 4 ± 3.5 µM

## CCC(CC)COC(=O)[C@H](C)N[P@](=O)(OC[C@H]1O[C@@](C#N)(c2ccc3c(N)ncnn23)[C@H](O)[C@@H]1O)Oc1ccccc1 [Remdesivir, remdesivir]
[4]; [9]
  EC50: 0.012 ± 0.002 µM
